Key:
Assay in all cases: relative viability (nuclei count vs DMSO), 5 days (fraction); higher = more cells survive
[1] = system: LC-2-ad
Method in brief: (§1)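 Relative viability is defined as nuclei in treated wells over nuclei in vehicle wells. Duplicate plates were run and medians reported. Lung cancer cell lines in 1536-well plates were dosed by pin tool one day after seeding, with one drug or with a fixed anchor-drug dose plus five library-drug doses (not always all listed) in √10 steps, and nuclei were counted after 5 days.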

[2] = system: HCC-15
Method in brief: as §1

[3] = system: SW 1573
Method in brief: as §1

[4] = system: NCI-H2126
Method in brief: as §1

[5] = system: NCI-H3122
Method in brief: as §1

[6] = system: NCI-H1755
Method in brief: as §1

[7] = system: NCI-H2170
Method in brief: as §1

[8] = system: HOP-62
Method in brief: as §1

[9] = system: LU99A
Method in brief: as §1

[10] = system: NCI-H1734
Method in brief: as §1

[11] = system: NCI-H1437
Method in brief: as §1

[12] = system: NCI-H2023
Method in brief: as §1

[13] = system: NCI-H650
Method in brief: as §1

[14] = system: NCI-H727
Method in brief: as §1

[15] = system: NCI-H1915
Method in brief: as §1

[16] = system: NCI-H358
Method in brief: as §1

[17] = system: HCC-44
Method in brief: as §1

[18] = system: NCI-H1563
Method in brief: as §1

[19] = system: BEN
Method in brief: as §1

[20] = system: EMC-BAC-2
Method in brief: as §1

CN1CCN(CCOc2cc(OC3CCOCC3)c3c(Nc4c(Cl)ccc5c4OCO5)ncnc3c2)CC1 [Saracatinib] + C[C@@H](Oc1cc(-c2cnn(C3CCNCC3)c2)cnc1N)c1c(Cl)ccc(F)c1Cl [Crizotinib] (partner 1 µM) gave a relative viability ([1]; first compound 0.02 µM) of 0.434, a relative viability ([1]; first compound 0.2 µM) of 0.41 and a relative viability ([1]; first compound 0.6325 µM) of 0.513. For the same molecule, the relative viability ([1]; first compound 2 µM) was 0.371, the relative viability ([2]; first compound 0.02 µM) was 0.817 and the relative viability ([2]; first compound 0.2 µM) was 0.693. The relative viability ([2]; first compound 0.6325 µM) was 0.805, the relative viability ([2]; first compound 2 µM) was 0.765 and the relative viability ([3]; first compound 0.02 µM) was 0.744. It also gave a relative viability ([3]; first compound 0.2 µM) of 0.801, a relative viability ([3]; first compound 0.6325 µM) of 0.903 and a relative viability ([3]; first compound 2 µM) of 0.591. The relative viability ([4]; first compound 0.02 µM) was 0.991, the relative viability ([4]; first compound 0.2 µM) was 0.84 and the relative viability ([4]; first compound 0.6325 µM) was 1.02. For the same molecule, the relative viability ([4]; first compound 2 µM) was 0.894, the relative viability ([5]; first compound 0.02 µM) was 0.28 and the relative viability ([5]; first compound 0.6325 µM) was 0.226. It also gave a relative viability ([5]; first compound 2 µM) of 0.187, a relative viability ([6]; first compound 0.02 µM) of 0.883 and a relative viability ([6]; first compound 0.2 µM) of 0.536. It also gave a relative viability ([6]; first compound 0.6325 µM) of 0.779, a relative viability ([6]; first compound 2 µM) of 0.662 and a relative viability ([7]; first compound 0.02 µM) of 1.13. It also gave a relative viability ([7]; first compound 0.2 µM) of 1.24, a relative viability ([7]; first compound 0.6325 µM) of 1.13 and a relative viability ([7]; first compound 2 µM) of 0.649. The relative viability ([8]; first compound 0.02 µM) was 0.772, the relative viability ([8]; first compound 0.2 µM) was 0.928 and the relative viability ([8]; first compound 0.6325 µM) was 0.841. The relative viability ([8]; first compound 2 µM) was 1.02, the relative viability ([9]; first compound 0.02 µM) was 0.664 and the relative viability ([9]; first compound 0.2 µM) was 0.377. It also gave a relative viability ([9]; first compound 0.6325 µM) of 0.487, a relative viability ([9]; first compound 2 µM) of 0.39 and a relative viability ([10]; first compound 0.02 µM) of 0.751. The relative viability ([10]; first compound 0.6325 µM) was 0.656, the relative viability ([10]; first compound 2 µM) was 0.507 and the relative viability ([11]; first compound 0.02 µM) was 0.912. It also gave a relative viability ([11]; first compound 0.2 µM) of 0.866, a relative viability ([11]; first compound 0.6325 µM) of 0.865 and a relative viability ([11]; first compound 2 µM) of 0.943. For the same molecule, the relative viability ([12]; first compound 0.02 µM) was 0.769, the relative viability ([12]; first compound 0.2 µM) was 0.428 and the relative viability ([12]; first compound 0.6325 µM) was 0.391. The relative viability ([12]; first compound 2 µM) was 0.356, the relative viability ([13]; first compound 0.02 µM) was 0.597 and the relative viability ([13]; first compound 0.2 µM) was 0.643. For the same molecule, the relative viability ([13]; first compound 0.6325 µM) was 0.639, the relative viability ([13]; first compound 2 µM) was 0.622 and the relative viability ([14]; first compound 0.02 µM) was 0.904. It also gave a relative viability ([14]; first compound 0.2 µM) of 0.452, a relative viability ([14]; first compound 0.6325 µM) of 0.617 and a relative viability ([14]; first compound 2 µM) of 0.378. The relative viability ([15]; first compound 0.02 µM) was 0.913, the relative viability ([15]; first compound 0.2 µM) was 0.846 and the relative viability ([15]; first compound 0.6325 µM) was 0.916. For the same molecule, the relative viability ([15]; first compound 2 µM) was 0.875, the relative viability ([16]; first compound 0.02 µM) was 0.54 and the relative viability ([16]; first compound 0.2 µM) was 0.611. The relative viability ([16]; first compound 0.6325 µM) was 0.376, the relative viability ([16]; first compound 2 µM) was 0.251 and the relative viability ([17]; first compound 0.02 µM) was 0.859. The relative viability ([17]; first compound 0.2 µM) was 0.738, the relative viability ([17]; first compound 0.6325 µM) was 0.952 and the relative viability ([17]; first compound 2 µM) was 1.01. The relative viability ([18]; first compound 0.02 µM) was 0.905, the relative viability ([18]; first compound 0.2 µM) was 0.778 and the relative viability ([18]; first compound 0.6325 µM) was 0.677. For the same molecule, the relative viability ([18]; first compound 2 µM) was 0.635, the relative viability ([19]; first compound 0.02 µM) was 0.77 and the relative viability ([19]; first compound 0.2 µM) was 0.738. For the same molecule, the relative viability ([19]; first compound 0.6325 µM) was 0.911, the relative viability ([19]; first compound 2 µM) was 0.569 and the relative viability ([20]; first compound 0.02 µM) was 0.701. It also gave a relative viability ([20]; first compound 0.2 µM) of 0.72, a relative viability ([20]; first compound 0.6325 µM) of 0.652 and a relative viability ([20]; first compound 2 µM) of 0.463.

From the supplement of paper PMC10307832
